Experimental data: patent publication US11458079B2, “Sunscreen cosmetic” (JO COSMETICS CO., LTD., priority 2019, dated 2022)
Entries after “also recorded” stand apart in the source; their conditions may differ.

Assay: Dissolution in the aqueous phase (C phase) of the O/W cosmetic composition
Type: physicochemical
Settings: 5.00 mass % in C phase (aqueous phase) of O/W formulation of Comparative Example 4
Description: (4) The gel emulsion was mixed with the components of C phase (aqueous phase), thereby preparing an O/W cosmetic composition. […] Hydrophobized fine particle titanium oxide” alone, the sunscreen cosmetic of Comparative Example 3 simultaneously containing “9. Trans-resveratrol aglycone,” which was not a polysaccharide, and “7. […] Since it is generally difficult to apply the formulation that could not be produced in such a small lot experiment to mass production, the production of emulsified cosmetic compositions for use in sunscreen containing trans-resveratrol monosaccharide glycoside turned out to be impractical.

With `OC[C@H]1O[C@@H](Oc2cc(O)cc(/C=C/c3ccc(O)cc3)c2)[C@H](O)[C@@H](O)[C@@H]1O` [piceid, Piceid] the “Solubility in the aqueous phase / water solubility” value was “could not be dissolved; also recorded: insufficient” and the “Solubility in the aqueous phase / water solubility” value (listed as resveratrol monosaccharide glycoside) was “could not be dissolved uniformly”.
